Target: T1, FucX (Campylobacter jejuni, UniProt Q0PB28)
T1 construct: gene Cj0485; His-tagged FucX from pET30a(+)-fucX, expressed in E. coli BL21, Ni-NTA purified, desalted
Experiment: dehydrogenase assay, NADPH absorbance at […] nm
Type: biochemical
Settings: 5 nM protein; 1 mM L-fucose; 100 µM NADP+; 1 mM MgCl2; 50 mM Tris-HCl pH 7.5; room temperature

T1 sequence (Q0PB28 entry or part of it): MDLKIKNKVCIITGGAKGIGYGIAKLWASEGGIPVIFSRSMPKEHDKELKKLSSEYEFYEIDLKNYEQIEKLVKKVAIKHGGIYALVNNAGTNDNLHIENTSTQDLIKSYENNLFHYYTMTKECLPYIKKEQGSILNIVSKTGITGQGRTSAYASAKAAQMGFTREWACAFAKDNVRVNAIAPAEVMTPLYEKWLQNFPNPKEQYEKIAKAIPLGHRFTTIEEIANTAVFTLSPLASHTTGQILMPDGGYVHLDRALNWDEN

Question: How did the “dehydrogenase assay, NADPH absorbance at 340 nm” value turn out when `C[C@@H]1OC(O)[C@@H](O)[C@H](O)[C@@H]1O` (stereo partly drawn) [L-fucose] was run?
Answer: The value was “L-Fucose dehydrogenase activity of indicated FucX pure proteins: (+), with L-fucose; (−), no L-fucose”.
